Species: Rattus norvegicus
Test: DrugMatrix - Regimen: Daily Repeat
Format: toxicity, organism-based, Sprague-Dawley
Design: regimen Daily Repeat, gender Male, age 6-8 weeks
Details: in vivo, po, route oral GAVAGE, vehicle .5 % CMC; for ABSOLUTE BASOPHIL / ABSOLUTE EOSINOPHIL / ABSOLUTE LYMPHOCYTE / ABSOLUTE MONOCYTE / ABSOLUTE SEGMENTED NEUTROPHIL / BASOPHIL / EOSINOPHIL / ERYTHROCYTE COUNT / HEMATOCRIT / HEMOGLOBIN / LEUKOCYTE COUNT / LYMPHOCYTE / MEAN CORPUSCULAR HEMOGLOBIN / MEAN CORPUSCULAR HEMOGLOBIN CONCENTRATION / MEAN CORPUSCULAR VOLUME / MONOCYTE / NEUTROPHIL / NUCLEATED RED BLOOD CELLS / PLATELET COUNT: tissue Blood; for ALANINE AMINOTRANSFERASE / ALBUMIN / ALKALINE PHOSPHATASE / ASPARTATE AMINOTRANSFERASE / BLOOD UREA NITROGEN / CARBON DIOXIDE / CHLORIDE / CHOLESTEROL / CREATINE PHOSPHOKINASE / CREATININE / GLUCOSE / LACTATE DEHYDROGENASE / LIPASE / PHOSPHORUS / POTASSIUM / SODIUM / TOTAL BILIRUBIN / TOTAL PROTEIN / URIC ACID: tissue Plasma
[1] = 0 mg/kg, 72 h, dose level Control, time 3 day
[2] = 0 mg/kg, 120 h, dose level Control, time 5 day
[3] = 44 mg/kg, 72 h, dose level Low, time 3 day

Brc1ccccc1 [BROMOBENZENE]
ABSOLUTE BASOPHIL [1]: 0 CELLS/uL | ABSOLUTE EOSINOPHIL [1]: 15.17 CELLS/uL | ABSOLUTE LYMPHOCYTE [1]: 10149.83 CELLS/uL | ABSOLUTE MONOCYTE [1]: 193.33 CELLS/uL | ABSOLUTE SEGMENTED NEUTROPHIL [1]: 1575 CELLS/uL | BASOPHIL [1]: 0% | EOSINOPHIL [1]: 0.17% | ERYTHROCYTE COUNT [1]: 5.53 x10E6/uL | HEMATOCRIT [1]: 34.7% | HEMOGLOBIN [1]: 12.78 G/DL | LEUKOCYTE COUNT [1]: 11.93 x10E3/uL | LYMPHOCYTE [1]: 85.5% | MEAN CORPUSCULAR HEMOGLOBIN [1]: 23.15 pg | MEAN CORPUSCULAR HEMOGLOBIN CONCENTRATION [1]: 36.9 G/DL | MEAN CORPUSCULAR VOLUME [1]: 62.82 fL | MONOCYTE [1]: 1.5% | NEUTROPHIL [1]: 12.83% | NUCLEATED RED BLOOD CELLS [1]: 0.5 /100WBC | PLATELET COUNT [1]: 994.17 x10E3/uL | ALANINE AMINOTRANSFERASE [1]: 48.17 u/L | ALBUMIN [1]: 4.37 G/DL | ALKALINE PHOSPHATASE [1]: 436.5 u/L | ASPARTATE AMINOTRANSFERASE [1]: 83.17 u/L | BLOOD UREA NITROGEN [1]: 14.67 mg/dL | CARBON DIOXIDE [1]: 30.83 mmol/L | CHLORIDE [1]: 99.17 MEQ/L | CHOLESTEROL [1]: 86.33 mg/dL | CREATINE PHOSPHOKINASE [1]: 243.33 u/L | CREATININE [1]: 0.25 mg/dL | GLUCOSE [1]: 158 mg/dL | LACTATE DEHYDROGENASE [1]: 262.33 u/L | LIPASE [1]: 11 u/L | PHOSPHORUS [1]: 12.07 mg/dL | POTASSIUM [1]: 6.52 MEQ/L | SODIUM [1]: 142.45 MEQ/L | TOTAL BILIRUBIN [1]: 0.17 mg/dL | TOTAL PROTEIN [1]: 6.25 G/DL | URIC ACID [1]: 1.42 mg/dL | ABSOLUTE BASOPHIL [2]: 0 CELLS/uL | ABSOLUTE EOSINOPHIL [2]: 0 CELLS/uL | ABSOLUTE LYMPHOCYTE [2]: 10076.67 CELLS/uL | ABSOLUTE MONOCYTE [2]: 124 CELLS/uL | ABSOLUTE SEGMENTED NEUTROPHIL [2]: 966 CELLS/uL | BASOPHIL [2]: 0% | EOSINOPHIL [2]: 0% | ERYTHROCYTE COUNT [2]: 5.57 x10E6/uL | HEMATOCRIT [2]: 33.37% | HEMOGLOBIN [2]: 12.73 G/DL | LEUKOCYTE COUNT [2]: 11.17 x10E3/uL | LYMPHOCYTE [2]: 90.33% | MEAN CORPUSCULAR HEMOGLOBIN [2]: 22.9 pg | MEAN CORPUSCULAR HEMOGLOBIN CONCENTRATION [2]: 38.18 G/DL | MEAN CORPUSCULAR VOLUME [2]: 59.97 fL | MONOCYTE [2]: 1% | NEUTROPHIL [2]: 8.67% | NUCLEATED RED BLOOD CELLS [2]: 0 /100WBC | PLATELET COUNT [2]: 1078 x10E3/uL | ALANINE AMINOTRANSFERASE [2]: 37.17 u/L | ALBUMIN [2]: 4.2 G/DL | ALKALINE PHOSPHATASE [2]: 322.17 u/L | ASPARTATE AMINOTRANSFERASE [2]: 67.67 u/L | BLOOD UREA NITROGEN [2]: 14 mg/dL | CARBON DIOXIDE [2]: 27.67 mmol/L | CHLORIDE [2]: 102.17 MEQ/L | CHOLESTEROL [2]: 67.67 mg/dL | CREATINE PHOSPHOKINASE [2]: 171.83 u/L | CREATININE [2]: 0.27 mg/dL | GLUCOSE [2]: 172 mg/dL | LACTATE DEHYDROGENASE [2]: 85.33 u/L | LIPASE [2]: 8.67 u/L | PHOSPHORUS [2]: 12 mg/dL | POTASSIUM [2]: 6.09 MEQ/L | SODIUM [2]: 144.82 MEQ/L | TOTAL BILIRUBIN [2]: 0.13 mg/dL | TOTAL PROTEIN [2]: 6.07 G/DL | URIC ACID [2]: 2.13 mg/dL | ABSOLUTE BASOPHIL [3]: 0 CELLS/uL | ABSOLUTE EOSINOPHIL [3]: 0 CELLS/uL | ABSOLUTE LYMPHOCYTE [3]: 8803 CELLS/uL | ABSOLUTE MONOCYTE [3]: 197 CELLS/uL | ABSOLUTE SEGMENTED NEUTROPHIL [3]: 1233.33 CELLS/uL | BASOPHIL [3]: 0% | EOSINOPHIL [3]: 0% | ERYTHROCYTE COUNT [3]: 5.29 x10E6/uL | HEMATOCRIT [3]: 32.6% | HEMOGLOBIN [3]: 12.17 G/DL | LEUKOCYTE COUNT [3]: 10.23 x10E3/uL | LYMPHOCYTE [3]: 86.33% | MEAN CORPUSCULAR HEMOGLOBIN [3]: 23 pg | MEAN CORPUSCULAR HEMOGLOBIN CONCENTRATION [3]: 37.3 G/DL | MEAN CORPUSCULAR VOLUME [3]: 61.67 fL | MONOCYTE [3]: 2% | NEUTROPHIL [3]: 11.67% | NUCLEATED RED BLOOD CELLS [3]: 0.33 /100WBC | PLATELET COUNT [3]: 1006 x10E3/uL | ALANINE AMINOTRANSFERASE [3]: 42.67 u/L | ALBUMIN [3]: 4.37 G/DL | ALKALINE PHOSPHATASE [3]: 351 u/L | ASPARTATE AMINOTRANSFERASE [3]: 74 u/L | BLOOD UREA NITROGEN [3]: 14 mg/dL | CARBON DIOXIDE [3]: 30 mmol/L | CHLORIDE [3]: 100.67 MEQ/L | CHOLESTEROL [3]: 85 mg/dL | CREATINE PHOSPHOKINASE [3]: 192.67 u/L | CREATININE [3]: 0.21 mg/dL | GLUCOSE [3]: 153.33 mg/dL | LACTATE DEHYDROGENASE [3]: 151.33 u/L | LIPASE [3]: 11.33 u/L | PHOSPHORUS [3]: 12.27 mg/dL | POTASSIUM [3]: 6.3 MEQ/L | SODIUM [3]: 144.5 MEQ/L | TOTAL BILIRUBIN [3]: 0.1 mg/dL | TOTAL PROTEIN [3]: 6.13 G/DL | URIC ACID [3]: 1.47 mg/dL
